{
  "source": "patent US11298333B1",
  "about": "“Methods of reducing the risk of cardiovascular events in a subject” (Amarin Pharmaceuticals Ireland Limited, priority 2018, dated 2022)",
  "key": {"[1]": {"test_system": "hypertriglyceridemic patients with cardiovascular disease or at high risk for cardiovascular disease", "format": "in vivo", "settings": "for Key secondary composite endpoint: relative risk reduction vs placebo / Primary composite endpoint: relative risk reduction vs placebo: over 5 years", "from_the_text": "The following study, also referred to as the REDUCE-IT clinical trial, was a large cardiovascular (CV) outcome trial designed to assess CV risk reduction benefit of AMR101 treatment (commercially known as VASCEPA®) versus placebo on the 5-point primary composite endpoint: CV death, non-fatal stroke, non-fatal myocardial infarction (MI), coronary revascularizations, or unstable angina requiring hospitalization.\nA multi-center, prospective, randomized, double-blind, placebo-controlled, parallel-group study was performed to evaluate the effect of AMR101 (4 g per day) on cardiovascular health and mortality in hypertriglyceridemic patients with cardiovascular disease or at high risk for cardiovascular disease. The intended expanded indication of the study was treatment with AMR101 as an add-on to statin therapy to reduce the risk of cardiovascular events in patients with clinical cardiovascular disease or with multiple risk factors for cardiovascular disease.\nThe primary objective of this study was, in patients at LDL-C goal while on statin therapy, with established cardiovascular disease (CVD) or at high risk for CVD, and hypertriglyceridemia (e.g., fasting triglycerides (TG) ≥200 mg/dL and <500 mg/dL), to evaluate the effect of AMR101 4 g daily on time from randomization to first occurrence of any component of the composite of the following major CV events: CV death; nonfatal MI; (including silent MI; electrocardiograms (ECGs) were performed annually for the detection of silent MIs); nonfatal stroke; coronary revascularization; and unstable angina determined to be caused by myocardial ischemia by invasive/non-invasive testing and requiring emergent hospitalization.\nThe key secondary objective of this study was to evaluate the effect of AMR101 4 g daily on the time from randomization to the first occurrence of the composite of following major CV events: CV death, nonfatal MI (including silent MI), and nonfatal stroke.\nOther secondary objectives for this study were to evaluate the effect of therapy on time from randomization to the first occurrence of the following individual or composite endpoints: composite of CV death or nonfatal MI (including silent MI); fatal or nonfatal MI (including silent MI); non-elective coronary revascularization represented as the composite of emergent or urgent classifications; CV death; unstable angina determined to be caused by myocardial ischemia by invasive/non-invasive testing and requiring emergent hospitalization; fatal or nonfatal stroke; composite of total mortality, nonfatal MI (including silent MI), or nonfatal stroke; and total mortality.\nPrimary Efficacy Endpoint: The primary efficacy endpoint was time from randomization to the first occurrence of the composite of the following clinical events: CV death; nonfatal MI (including silent MI; ECGs were performed annually for the detection of silent MIs); nonfatal stroke; coronary revascularization; and unstable angina determined to be caused by myocardial ischemia by invasive/non-invasive testing and requiring emergent hospitalization. The first occurrence of any of these major adverse vascular events during the follow-up period of the study were included in the incidence.\nSecondary Efficacy Endpoints: The key secondary efficacy endpoint was the time from randomization to the first occurrence of the composite of CV death, nonfatal MI (including silent MI), or nonfatal stroke. […]"}, "[2]": {"test_system": "TG, non-HDL-C, LDL-C, HDL-C, apo B, hsCRP", "assay": "REDUCE-IT: fasting lipid, lipoprotein and inflammatory biomarkers over time", "format": "in vivo, human", "settings": "Year 2; ITT", "description": "Fasting Lipid Profile: The fasting lipid panel included: TG, TC, LDL-C, HDL-C, non-HDL-C, and VLDL-C. At all visits, LDL-C was calculated using the Friedewald equation. At Visit 1 and Visit 1.1 direct LDL-C were used if at the same visit TG >400 mg/dL (4.52 mmol/L). These LDL-C values were used for the evaluation of the LDL-C inclusion criterion (LDL-C qualifying measurements for randomization) and for the assessment of changes in the statin therapy when LDL-C was not at goal. […] In addition, irrespective of the TG levels, at Visit 2 (0 Months of Follow-up, baseline) and at Visit 4 (12 Months of Follow-up), LDL-C were measured by preparative ultracentrifugation. […] Hopkins LDL-C was calculated for each visit. […]\nThe fasting lipid panel was tested at Screening (Visit 1 or Visit 1.1), Randomization visit (Visit 2; Day 0), Visit 3 (Day 120; ˜4 Months) and all other follow-up visits including the last visit. For change from baseline to 1 year preparative ultracentrifugation measurements for LDL-C were analyzed, unless this value was missing. […] In addition, change from baseline to day 120 in LDL-C utilizing Friedewald's and Hopkins methods was analyzed, using the arithmetic mean of LDL-C obtained at Visit 2 (Day 0) and the preceding Visit 1 (or Visit 1.1). […] LDL-C according to Hopkins was calculated at each visit. […]"}, "[3]": {"settings": "4 g/day, ITT, hierarchical secondary endpoint"}, "[4]": {"settings": "4 g/day, ITT, median follow-up 4.9 years"}, "[5]": {"settings": "4 g/day, ITT, time to first event, median follow-up 4.9 years"}, "[6]": {"settings": "4 g/day, ITT, time to first event"}, "[7]": {"settings": "4 g/day, ITT, time to first event, listed as AMR101"}},
  "note": "Like-named read-outs stand apart in the source and are kept apart here.",
  "data": [
    {"smiles": "CC/C=C\\C/C=C\\C/C=C\\C/C=C\\C/C=C\\CCCC(=O)OCC", "note": "[Icosapent Ethyl, eicosapentaenoic acid ethyl ester]", "values": [
      {"measurement": "Cardiac arrest: reduction vs placebo", "setting": "[1]; 4 g/day", "result": 48, "unit": "%"},
      {"measurement": "Reduction in heart attack vs placebo", "setting": "[1]; 4 g/day", "result": 31, "unit": "%"},
      {"measurement": "Sudden death: reduction vs placebo", "setting": "[1]; 4 g/day", "result": 31, "unit": "%"},
      {"measurement": "Cardiovascular death: relative risk reduction vs placebo", "setting": "[1]; 4 g/day, ITT", "result": 20, "unit": "%"},
      {"measurement": "Composite of cardiovascular death or nonfatal myocardial infarction: RRR", "setting": "[1]; 4 g/day, ITT", "result": 25, "unit": "%"},
      {"measurement": "Composite of total mortality, nonfatal myocardial infarction, or nonfatal stroke: RRR", "setting": "[1]; 4 g/day, ITT", "result": 23, "unit": "%"},
      {"measurement": "Fatal or nonfatal myocardial infarction: RRR", "setting": "[1]; 4 g/day, ITT", "result": 31, "unit": "%"},
      {"measurement": "Fatal or nonfatal stroke: RRR", "setting": "[1]; 4 g/day, ITT", "result": 28, "unit": "%"},
      {"measurement": "Total mortality: HR vs placebo", "setting": "[1]; 4 g/day, ITT", "result": 0.87},
      {"measurement": "Total mortality: relative risk reduction vs placebo", "setting": "[1]; 4 g/day, ITT", "result": 13, "unit": "%"},
      {"measurement": "Cardiovascular death: HR vs placebo", "setting": "[1]; [3]", "result": 0.80},
      {"measurement": "Cardiovascular death: patients with event", "setting": "[1]; [3]", "result": 4.3, "unit": "%"},
      {"measurement": "Total mortality (death from any cause): patients with event", "setting": "[1]; 4 g/day, ITT, last hierarchical secondary endpoint", "result": 6.7, "unit": "%"},
      {"measurement": "Key secondary composite endpoint: absolute risk reduction vs placebo", "setting": "[1]; [4]", "result": 3.6, "unit": "%"},
      {"measurement": "Primary composite endpoint: absolute risk reduction vs placebo", "setting": "[1]; [4]", "result": 4.8, "unit": "%"},
      {"measurement": "Key secondary composite endpoint (CV death, nonfatal MI, or nonfatal stroke): patients with event", "setting": "[1]; [5]", "result": 11.2, "unit": "%"},
      {"measurement": "Primary composite endpoint (CV death, nonfatal MI, nonfatal stroke, coronary revascularization, or unstable angina): patients with event", "setting": "[1]; [5]", "result": 17.2, "unit": "%"},
      {"measurement": "Key secondary composite endpoint: relative risk reduction vs placebo", "setting": "[1]; [6]", "result": 26, "unit": "%"},
      {"measurement": "Primary composite endpoint: relative risk reduction vs placebo", "setting": "[1]; [6]", "result": 25, "unit": "%"},
      {"measurement": "Key secondary composite endpoint: relative risk reduction vs placebo", "setting": "[1]; [7]", "result": 26, "unit": "%"},
      {"measurement": "Primary composite endpoint: relative risk reduction vs placebo", "setting": "[1]; [7]", "result": 25, "unit": "%"},
      {"measurement": "Adjudicated tertiary endpoint of heart failure: patients with event", "setting": "[1]; 4 g/day, no significant difference vs placebo", "result": 4.1, "unit": "%"},
      {"measurement": "Primary endpoint: risk reduction in post hoc analysis excluding patients with diarrhea", "setting": "[1]; post hoc", "result": 25, "unit": "%"},
      {"measurement": "Adjudicated sudden cardiac death: patients with event", "setting": "[1]; tertiary endpoint, 4 g/day, ITT", "result": 1.5, "unit": "%"},
      {"measurement": "Cardiac Arrest: HR (95% CI)", "setting": "[1]; tertiary endpoint, vs placebo", "result": "0.52 (0.31, 0.86)"},
      {"measurement": "Coronary Revascularization: HR (95% CI)", "setting": "[1]; tertiary endpoint, vs placebo", "result": "0.66 (0.58, 0.76)"},
      {"measurement": "Elective Revascularization: HR (95% CI)", "setting": "[1]; tertiary endpoint, vs placebo", "result": "0.68 (0.57, 0.82)"},
      {"measurement": "Emergent Revascularization: HR (95% CI)", "setting": "[1]; tertiary endpoint, vs placebo", "result": "0.62 (0.42, 0.92)"},
      {"measurement": "Ischemic Stroke: HR (95% CI)", "setting": "[1]; tertiary endpoint, vs placebo", "result": "0.64 (0.49, 0.85)"},
      {"measurement": "New Heart Failure Requiring Hospitalization: HR (95% CI)", "setting": "[1]; tertiary endpoint, vs placebo", "result": "0.97 (0.77, 1.22)"},
      {"measurement": "New Heart Failure: HR (95% CI)", "setting": "[1]; tertiary endpoint, vs placebo", "result": "0.95 (0.77, 1.17)"},
      {"measurement": "Primary Endpoint in Patients with Diabetes at Baseline: HR (95% CI)", "setting": "[1]; tertiary endpoint, vs placebo", "result": "0.77 (0.68, 0.87)"},
      {"measurement": "Salvage Revascularization: HR (95% CI)", "setting": "[1]; tertiary endpoint, vs placebo", "result": "0.00 (0.00, —)"},
      {"measurement": "Urgent Revascularization: HR (95% CI)", "setting": "[1]; tertiary endpoint, vs placebo", "result": "0.66 (0.54, 0.79)"},
      {"measurement": "Triglycerides median absolute change from baseline", "setting": "[2]", "result": 85, "unit": "mg/dL"}
    ]}
  ]
}
